Columns and labels:
Androgen receptor [1] = molecular target: T1, Androgen receptor (Homo sapiens, UniProt P10275); experiment: Antagonist activity at human androgen receptor by cell based assay; format: functional
T1 sequence (P10275 whole entry): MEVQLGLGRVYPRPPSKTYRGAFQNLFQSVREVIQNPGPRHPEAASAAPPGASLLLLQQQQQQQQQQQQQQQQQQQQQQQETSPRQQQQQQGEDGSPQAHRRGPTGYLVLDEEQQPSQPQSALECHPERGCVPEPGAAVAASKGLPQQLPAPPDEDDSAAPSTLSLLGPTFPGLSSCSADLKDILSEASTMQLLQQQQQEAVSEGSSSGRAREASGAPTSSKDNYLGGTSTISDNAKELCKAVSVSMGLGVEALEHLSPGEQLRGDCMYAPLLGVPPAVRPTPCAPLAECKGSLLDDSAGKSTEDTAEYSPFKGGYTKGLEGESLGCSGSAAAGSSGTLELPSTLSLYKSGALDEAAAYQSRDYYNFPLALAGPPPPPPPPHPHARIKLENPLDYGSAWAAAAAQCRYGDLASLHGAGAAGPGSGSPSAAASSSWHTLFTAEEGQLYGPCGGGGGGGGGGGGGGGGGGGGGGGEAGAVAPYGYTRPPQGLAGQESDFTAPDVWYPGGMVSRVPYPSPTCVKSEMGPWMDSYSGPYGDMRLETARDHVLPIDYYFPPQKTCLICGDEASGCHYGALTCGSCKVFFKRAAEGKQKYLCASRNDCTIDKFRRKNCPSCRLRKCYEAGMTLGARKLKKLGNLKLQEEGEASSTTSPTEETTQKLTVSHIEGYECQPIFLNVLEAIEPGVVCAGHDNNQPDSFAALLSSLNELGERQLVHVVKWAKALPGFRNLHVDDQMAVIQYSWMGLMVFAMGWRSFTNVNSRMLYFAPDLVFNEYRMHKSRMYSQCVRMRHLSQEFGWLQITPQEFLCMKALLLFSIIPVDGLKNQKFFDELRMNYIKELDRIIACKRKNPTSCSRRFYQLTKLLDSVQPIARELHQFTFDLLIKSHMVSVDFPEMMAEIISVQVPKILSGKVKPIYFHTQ

Androgen receptor [2] = molecular target: T1, Androgen receptor; experiment: Binding affinity to human androgen receptor
Syrian golden hamster [3] = experiment: Reduction of wax ester in Syrian golden hamster ear model at 1.5 % administered topically; format: functional, Mesocricetus auratus; parameters: scale not given: the % may be the effect or the level left
Syrian golden hamster [4] = experiment: Reduction of cholesterol ester in Syrian golden hamster ear model at 1.5 % administered topically; format: functional, Mesocricetus auratus; parameters: scale not given: the % may be the effect or the level left
Syrian golden hamster [5] = experiment: Reduction of cholesterol ester in Syrian golden hamster ear model at 3 % administered topically; format: functional, Mesocricetus auratus; parameters: scale not given: the % may be the effect or the level left
Syrian golden hamster [6] = experiment: Reduction of wax ester in Syrian golden hamster ear model at 3 % administered topically; format: functional, Mesocricetus auratus; parameters: scale not given: the % may be the effect or the level left
Syrian golden hamster [7] = experiment: Reduction of wax ester in Syrian golden hamster ear model at 1 % administered topically; format: functional, Mesocricetus auratus; parameters: scale not given: the % may be the effect or the level left
Syrian golden hamster [8] = experiment: Reduction of cholesterol ester in Syrian golden hamster ear model at 1 % administered topically; format: functional, Mesocricetus auratus; parameters: scale not given: the % may be the effect or the level left
Syrian golden hamster [9] = experiment: Reduction of wax ester in Syrian golden hamster ear model at 2 % administered topically; format: functional, Mesocricetus auratus; parameters: scale not given: the % may be the effect or the level left
Syrian golden hamster [10] = experiment: Reduction of cholesterol ester in Syrian golden hamster ear model at 2 % administered topically; format: functional, Mesocricetus auratus; parameters: scale not given: the % may be the effect or the level left

Row | SMILES | IC50 (Androgen receptor [1]) | IC50 (Androgen receptor [2]) | also measured
1 | CCCN1CC(C)(C)C(Oc2ccc(C#N)c(C(F)(F)F)c2)C1=O (racemic) | 24 nM | – | –
2 | CC1(C)CN(Cc2nc3ccccc3s2)C(=O)C1Oc1ccc(C#N)c(C(F)(F)F)c1 (racemic) | 51 nM | – | –
3 | CC1(C)COC(=O)[C@H]1Oc1ccc(C#N)c(C(F)(F)F)c1 | 1000 nM | 10000 nM | –
4 | CC1(C)CN(Cc2cccnc2)C(=O)C1Oc1ccc(C#N)c(C(F)(F)F)c1 (racemic) | – | 880 nM | –
5 | CSc1ccc(CN2CC(C)(C)C(Oc3ccc(C#N)c(C(F)(F)F)c3)C2=O)cc1 (single isomer, unassigned; (+)) | 28 nM | 316 nM | Activity (Syrian golden hamster [3]): 89%; Activity (Syrian golden hamster [4]): 75%
6 | COCCN1CC(C)(C)C(Oc2ccc(C#N)c(C(F)(F)F)c2)C1=O (racemic) | – | 1770 nM | –
7 | CCC(C)N1CC(C)(C)C(Oc2ccc(C#N)c(C(F)(F)F)c2)C1=O (stereo in doubt; 18) | – | 9790 nM | –
8 | CC1(C)CN(Cc2ccccc2F)C(=O)C1Oc1ccc(C#N)c(C(F)(F)F)c1 (single isomer, unassigned; (+)) | 92 nM | 112 nM | Activity (Syrian golden hamster [5]): 70%; Activity (Syrian golden hamster [6]): 86%
9 | Cc1nc(CN2CC(C)(C)C(Oc3ccc(C#N)c(C(F)(F)F)c3)C2=O)cs1 (racemic) | – | 324 nM | –
10 | CC1(C)CN(Cc2ccccc2)C(=O)C1Oc1ccc(C#N)c(C(F)(F)F)c1 (single isomer, unassigned; (+)) | 38 nM | 100 nM | Activity (Syrian golden hamster [5]): 68%; Activity (Syrian golden hamster [6]): 83%
11 | CCNC(=O)CN1CC(C)(C)C(Oc2ccc(C#N)c(C(F)(F)F)c2)C1=O (racemic) | – | 4910 nM | –
12 | COc1ccc(CN2CC(C)(C)C(Oc3ccc(C#N)c(C(F)(F)F)c3)C2=O)cc1 (racemic) | – | 284 nM | –
13 | COC(=O)c1csc(CN2CC(C)(C)C(Oc3ccc(C#N)c(C(F)(F)F)c3)C2=O)n1 (racemic) | > 900 nM | – | –
14 | CCC(C)N1CC(C)(C)C(Oc2ccc(C#N)c(C(F)(F)F)c2)C1=O (single isomer, unassigned; (+)) | 32 nM | 132 nM | –
15 | CC1(C)CNC(=O)C1Oc1ccc(C#N)c(C(F)(F)F)c1 (racemic) | 82 nM | 2790 nM | –
16 | CC1(C)COC(=O)[C@@H]1Oc1ccc(C#N)c(C(F)(F)F)c1 | 42 nM | 70 nM | –
17 | CC1(C)COC(=O)C1Oc1ccc(C#N)c(C(F)(F)F)c1 (racemic) | 70 nM | 113 nM | –
18 | CC1(C)CN(Cc2cccc(O)c2)C(=O)C1Oc1ccc(C#N)c(C(F)(F)F)c1 (racemic) | > 600 nM | – | –
19 | CC1(C)CN(Cc2cccc(F)c2)C(=O)C1Oc1ccc(C#N)c(C(F)(F)F)c1 (racemic) | 61 nM | 48 nM | –
20 | CCOC(=O)c1ccc(CN2CC(C)(C)C(Oc3ccc(C#N)c(C(F)(F)F)c3)C2=O)o1 (racemic) | 97 nM | 166 nM | –
21 | CCCC(C)N1CC(C)(C)C(Oc2ccc(C#N)c(C(F)(F)F)c2)C1=O (racemic) | 6 nM | 200 nM | –
22 | CC1(C)CN(Cc2ccccc2)C(=O)C1Oc1ccc(C#N)c(C(F)(F)F)c1 (racemic) | 11 nM | 30 nM | –
23 | CCCCCCN1CC(C)(C)C(Oc2ccc(C#N)c(C(F)(F)F)c2)C1=O (racemic) | – | 766 nM | –

Row | SMILES | IC50 (Androgen receptor [1]) | IC50 (Androgen receptor [2]) | also measured
24 | CC1(C)CN(Cc2ccccc2F)C(=O)C1Oc1ccc(C#N)c(C(F)(F)F)c1 (racemic) | 44 nM | 174 nM | –
25 | CC1(C)C(=O)N(c2ccc(C#N)c(C(F)(F)F)c2)C(=O)N1CCCCO [RU-58841] | – | – | Activity (Syrian golden hamster [7]): 95%
26 | CC1(C)CN(Cc2ccccn2)C(=O)C1Oc1ccc(C#N)c(C(F)(F)F)c1 (racemic) | – | 767 nM | –
27 | CC1(C)CN(Cc2noc(-c3ccccc3)n2)C(=O)C1Oc1ccc(C#N)c(C(F)(F)F)c1 (racemic) | 40 nM | 84 nM | –
28 | CC1(C)CN(CCCO)C(=O)C1Oc1ccc(C#N)c(C(F)(F)F)c1 (racemic) | – | 523 nM | –
29 | CSc1ccc(CN2CC(C)(C)C(Oc3ccc(C#N)c(C(F)(F)F)c3)C2=O)cc1 (stereo in doubt; 38) | 51 nM | 187 nM | –
30 | CC(C)CCCN1CC(C)(C)C(Oc2ccc(C#N)c(C(F)(F)F)c2)C1=O (racemic) | – | 802 nM | –
31 | COc1cccc(CN2CC(C)(C)C(Oc3ccc(C#N)c(C(F)(F)F)c3)C2=O)c1 (racemic) | 309 nM | – | –
32 | CSCCN1CC(C)(C)C(Oc2ccc(C#N)c(C(F)(F)F)c2)C1=O (racemic) | – | 2450 nM | –
33 | CCOC(=O)CN1CC(C)(C)C(Oc2ccc(C#N)c(C(F)(F)F)c2)C1=O (racemic) | – | 3520 nM | –
34 | CN1CC(C)(C)C(Oc2ccc(C#N)c(C(F)(F)F)c2)C1=O (racemic) | – | 1210 nM | –
35 | CC1(C)CN(Cc2ccncc2)C(=O)C1Oc1ccc(C#N)c(C(F)(F)F)c1 (racemic) | > 600 nM | – | –
36 | COCN1CC(C)(C)C(Oc2ccc(C#N)c(C(F)(F)F)c2)C1=O (racemic) | – | 516 nM | –
37 | COC(=O)CN1CC(C)(C)C(Oc2ccc(C#N)c(C(F)(F)F)c2)C1=O (racemic) | – | 494 nM | –
38 | CCCN1CC(C)(C)C(Oc2ccc(C#N)c(C(F)(F)F)c2)C1=O (single isomer, unassigned; (+)) | 83 nM | 225 nM | Activity (Syrian golden hamster [8]): 76%; Activity (Syrian golden hamster [7]): 85%
39 | CCCCN1CC(C)(C)C(Oc2ccc(C#N)c(C(F)(F)F)c2)C1=O (single isomer, unassigned; (+)) | 10 nM | 91 nM | Activity (Syrian golden hamster [9]): 83%; Activity (Syrian golden hamster [10]): 66%
40 | CC1(C)CN(Cc2ccc(O)cc2)C(=O)C1Oc1ccc(C#N)c(C(F)(F)F)c1 (racemic) | 32 nM | – | –
41 | CC1(C)CN(Cc2nc(-c3ccccc3)no2)C(=O)C1Oc1ccc(C#N)c(C(F)(F)F)c1 (racemic) | 54 nM | – | –
42 | CC1(C)CN(Cc2ccc(F)cc2)C(=O)C1Oc1ccc(C#N)c(C(F)(F)F)c1 (racemic) | 199 nM | – | –
43 | CCCCN1CC(C)(C)C(Oc2ccc(C#N)c(C(F)(F)F)c2)C1=O (racemic) | 16 nM | 119 nM | –
44 | CCC(CC)CN1CC(C)(C)C(Oc2ccc(C#N)c(C(F)(F)F)c2)C1=O (racemic) | – | 444 nM | –
45 | CC1(C)CN(Cc2ccccc2O)C(=O)C1Oc1ccc(C#N)c(C(F)(F)F)c1 (racemic) | 13 nM | – | –

Reference: ChEMBL document CHEMBL1828515, “Pantolactams as androgen receptor antagonists for the topical suppression of sebum production” (Bioorg Med Chem Lett, 2011)
